Experimental data: patent publication US20060069132A1, “Azolecarboxamide herbicides” (priority 2004, published 2006)

Key:
barnyardgrass [1] = assay: Test A pre-/postemergence herbicide test; format: in vivo, Echinochloa crus-galli; conditions: for Plant response rating, Barnyardgrass: Postemergence; for Barnyardgrass plant response rating: Preemergence
In short: (§1)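 Both application timings were run together: directed soil spray over freshly planted seeds in sandy loam, and runoff spray onto 2–10 cm seedlings. Evaluation after ~10 days in greenhouse used a 0–100 visual scale versus untreated controls.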

large crabgrass [2] = assay: Test A pre-/postemergence herbicide test; format: in vivo, Digitaria sanguinalis; conditions: for Plant response rating, Crabgrass, Large: Postemergence; for Crabgrass, Large plant response rating: Preemergence
In short: as §1

giant foxtail [3] = assay: Test A pre-/postemergence herbicide test; format: in vivo, Setaria faberi; conditions: for Plant response rating, Foxtail, Giant: Postemergence; for Foxtail, Giant plant response rating: Preemergence
In short: as §1

morningglory [4] = assay: Test A pre-/postemergence herbicide test; format: in vivo, Ipomoea spp.; conditions: for Plant response rating, Morningglory: Postemergence; for Morningglory plant response rating: Preemergence
In short: as §1

redroot pigweed = assay: Test A pre-/postemergence herbicide test; format: in vivo, Amaranthus retroflexus; conditions: for Plant response rating, Pigweed: Postemergence; for Pigweed plant response rating: Preemergence
In short: as §1

velvetleaf [5] = assay: Test A pre-/postemergence herbicide test; format: in vivo, Abutilon theophrasti; conditions: for Velvetleaf plant response rating: Preemergence, visual rating, 0 to 100 scale (0 no effect, 100 complete control)
In short: as §1

barnyardgrass [6] = assay: Test B pre-/postemergence herbicide test; format: in vivo, Echinochloa crus-galli
In short: (§2)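 Visual rating, 0 (no effect) to 100 (complete control), versus untreated controls after 13–15 d in greenhouse. Pre- and postemergence applications (postemergence plants 2–18 cm, 1–4 leaves); flooded paddy arm at 2-leaf stage. Compounds in non-phytotoxic solvent plus surfactant.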

Surinam grass = assay: Test B pre-/postemergence herbicide test; format: in vivo, Urochloa decumbens
In short: (§3)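 Flooded paddy rice and barnyardgrass were treated at the 2-leaf stage; upland plantings received compound either on sown seed or on 1- to 4-leaf seedlings. All were kept 13–15 days in a greenhouse and scored visually, 0–100, relative to untreated plants.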

cocklebur = assay: Test B pre-/postemergence herbicide test; format: in vivo, Xanthium strumarium
In short: as §2

corn = assay: Test B pre-/postemergence herbicide test; format: in vivo, Zea mays
In short: as §3

large crabgrass [7] = assay: Test B pre-/postemergence herbicide test; format: in vivo, Digitaria sanguinalis
In short: as §3

giant foxtail [8] = assay: Test B pre-/postemergence herbicide test; format: in vivo, Setaria faberi
In short: as §3

lambsquarters = assay: Test B pre-/postemergence herbicide test; format: in vivo, Chenopodium album
In short: as §3

morningglory [9] = assay: Test B pre-/postemergence herbicide test; format: in vivo, Ipomoea coccinea
In short: as §2

pigweed = assay: Test B pre-/postemergence herbicide test; format: in vivo, Amaranthus retroflexus
In short: as §3

rice [10] = assay: Test B pre-/postemergence herbicide test; format: in vivo, Oryza sativa; conditions: preemergence, 125 g ai/ha; 0 to 100 scale, 0 is no effect, 100 is complete control
In short: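 Evaluation is visual, comparing treated with control plants on a scale where 0 means no effect and 100 means full control. Treatments were preemergence, or postemergence on seedlings 2–18 cm tall, and held 13–15 days in the greenhouse.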

velvetleaf [11] = assay: Test B pre-/postemergence herbicide test; format: in vivo, Abutilon theophrasti
In short: as §3

blackgrass = assay: Test B postemergence herbicide test; format: in vivo, Alopecurus myosuroides; conditions: scale 0 (no effect) to 100 (complete control)
In short: (§4)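 Visual ratings, 0 (no effect) to 100 (complete control), made versus controls after 13–15 d greenhouse. Paddy plants treated at 2-leaf stage; postemergence plants at 1- to 4-leaf stage, 2–18 cm tall.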

wheat = assay: Test B postemergence herbicide test; format: in vivo, Triticum aestivum; design: key to Wheat plant response rating: 0 = no effect, 100 = complete control; conditions: scale 0 (no effect) to 100 (complete control)
In short: (§5)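 Formulated test chemicals went onto postemergence plants measuring 2 to 18 cm, at one to four leaves. For the paddy assay, species had reached two leaves. Scoring took place 13–15 days later by eye, relative to untreated plants, using 0 for no effect up to 100 for full control.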

wild oat = assay: Test B postemergence herbicide test; format: in vivo, Avena fatua; conditions: scale 0 (no effect) to 100 (complete control)
In short: as §5

rice [12] = assay: Test B flooded paddy test; format: in vivo, Oryza sativa; conditions: 1000 g ai/ha, visual rating, scale 0 to 100 (0 no effect, 100 complete control), 13 to 15 days
In short: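 After treating 2-leaf paddy plants or 2–18 cm postemergence plants (1 to 4 leaves) with formulated chemical, researchers kept them in a greenhouse for 13–15 days. Effects were judged visually versus controls: 0 indicates none, 100 total control.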

[13] = test system: small flower umbrella sedge; assay: Test B flooded paddy test; format: in vivo, Cyperus difformis; conditions: 1000 g ai/ha, visual rating, scale 0 to 100 (0 no effect, 100 complete control), 13 to 15 days
In short: as §4

ducksalad = assay: Test B flooded paddy test; format: in vivo, Heteranthera limosa; conditions: 1000 g ai/ha, visual rating, scale 0 to 100 (0 no effect, 100 complete control), 13 to 15 days
In short: as §4

barnyardgrass [14] = assay: Test B flooded paddy test; format: in vivo, Echinochloa crus-galli; conditions: 1000 g ai/ha, visual rating, scale 0 to 100 (0 no effect, 100 complete control), 13 to 15 days
In short: as §4

[15] = 500 g ai/ha, 0 to 100 scale, 0 no effect, 100 complete control
[16] = 2000 g ai/ha, 0 to 100 scale, 0 no effect, 100 complete control
[17] = 500 g ai/ha, visual rating, 0 to 100 scale (0 no effect, 100 complete control)
[18] = Postemergence, 500 g ai/ha, visual rating after 13 to 15 days, scale 0 (no effect) to 100 (complete control)
[19] = Preemergence, 500 g ai/ha, scale 0 to 100
[20] = postemergence, 125 g ai/ha, visual rating, scale 0 (no effect) to 100 (complete control)
[21] = preemergence, 125 g ai/ha, 0 to 100 scale, 0 is no effect, 100 is complete control
[22] = Postemergence, 500 g ai/ha, visual rating after 13 to 15 days
[23] = postemergence, 125 g ai/ha, visual rating

## CCn1nc(C(C)(C)C)cc1C(=O)Nc1cc(C(=O)OC(C)(C)C)ccc1F [Compound 71]
Barnyardgrass [1]; [15]
  Plant response rating, Barnyardgrass: 0
Barnyardgrass [1]; [16]
  Plant response rating, Barnyardgrass: 0
  Barnyardgrass plant response rating: 0
Barnyardgrass [1]; [17]
  Barnyardgrass plant response rating: 0
Large crabgrass [2]; [15]
  Plant response rating, Crabgrass, Large: 0
Large crabgrass [2]; [16]
  Plant response rating, Crabgrass, Large: 0
  Crabgrass, Large plant response rating: 0
Large crabgrass [2]; [17]
  Crabgrass, Large plant response rating: 0
Giant foxtail [3]; [15]
  Plant response rating, Foxtail, Giant: 0
Giant foxtail [3]; [16]
  Plant response rating, Foxtail, Giant: 0
  Foxtail, Giant plant response rating: 0
Giant foxtail [3]; [17]
  Foxtail, Giant plant response rating: 0
Morningglory [4]; [15]
  Plant response rating, Morningglory: 0
Morningglory [4]; [16]
  Plant response rating, Morningglory: 0
  Morningglory plant response rating: 0
Morningglory [4]; [17]
  Morningglory plant response rating: 0
Redroot pigweed; [15]
  Plant response rating, Pigweed: 0
Redroot pigweed; [16]
  Plant response rating, Pigweed: 0
  Pigweed plant response rating: 0
Redroot pigweed; [17]
  Pigweed plant response rating: 0
Velvetleaf [5]; Postemergence, 2000 g ai/ha, 0 to 100 scale, 0 no effect, 100 complete control
  Plant response rating, Velvetleaf: 0
Velvetleaf [5]; 500 g ai/ha
  Velvetleaf plant response rating: 0
Velvetleaf [5]; 2000 g ai/ha
  Velvetleaf plant response rating: 0
Barnyardgrass [6]; [18]
  Plant response rating, Barnyardgrass: 10
Barnyardgrass [6]; [19]
  Barnyardgrass plant response rating: 0
Barnyardgrass [6]; [20]
  Barnyardgrass plant response rating: 0
Barnyardgrass [6]; [21]
  Plant response rating, Barnyardgrass: 0
Surinam grass; [18]
  Plant response rating, Surinam Grass: 10
Surinam grass; [20]
  Surinam Grass plant response rating: 0
Surinam grass; [21]
  Plant response rating, Surinam Grass: 0
cocklebur; [18]
  Plant response rating, Cocklebur: 0
cocklebur; [19]
  Cocklebur plant response rating: 0
cocklebur; [20]
  Cocklebur plant response rating: 0
cocklebur; [21]
  Plant response rating, Cocklebur: 0
corn; [18]
  Plant response rating, Corn: 10
corn; [19]
  Corn plant response rating: 0
corn; [20]
  Corn plant response rating: 0
corn; [21]
  Plant response rating, Corn: 0
Large crabgrass [7]; [18]
  Plant response rating, Crabgrass, Large: 10
Large crabgrass [7]; [19]
  Crabgrass, Large plant response rating: 0
Large crabgrass [7]; [20]
  Crabgrass, Large plant response rating: 0
Large crabgrass [7]; [21]
  Plant response rating, Crabgrass, Large: 0
Giant foxtail [8]; [18]
  Plant response rating, Foxtail, Giant: 10
Giant foxtail [8]; [19]
  Foxtail, Giant plant response rating: 0
Giant foxtail [8]; [20]
  Foxtail, Giant plant response rating: 0
Giant foxtail [8]; [21]
  Plant response rating, Foxtail, Giant: 0
lambsquarters; [18]
  Plant response rating, Lambsquarters: 20
lambsquarters; [20]
  Lambsquarters plant response rating: 0
lambsquarters; [21]
  Plant response rating, Lambsquarters: 0
Morningglory [9]; [18]
  Plant response rating, Morningglory: 0
Morningglory [9]; [20]
  Morningglory plant response rating: 0
Morningglory [9]; [21]
  Plant response rating, Morningglory: 0
pigweed; [18]
  Plant response rating, Pigweed: 20
pigweed; [20]
  Pigweed plant response rating: 0
pigweed; [21]
  Plant response rating, Pigweed: 0
Rice [10]
  Plant response rating, Rice: 0
Velvetleaf [11]; [18]
  Plant response rating, Velvetleaf: 0
Velvetleaf [11]; [20]
  Velvetleaf plant response rating: 0
Velvetleaf [11]; [21]
  Plant response rating, Velvetleaf: 0
blackgrass; [22]
  Plant response rating, Blackgrass: 0
blackgrass; [23]
  Blackgrass plant response rating: 0
wheat; [22]
  Plant response rating, Wheat: 0
wheat; [23]
  Wheat plant response rating: 0
Wild oat; [22]
  Plant response rating, Oat, Wild: 0
Wild oat; [23]
  Oat, Wild plant response rating: 0
Rice [12]
  Rice plant response rating: 0
[13]
  Sedge, Umbrella plant response rating: 0
ducksalad
  Ducksalad plant response rating: 0
Barnyardgrass [14]
  Barnyardgrass plant response rating: 0
